23 compounds from patent US10377719B2, “Trypanosomes inhibitors” (Hoffmann-La Roche Inc., priority 2015, dated 2019) can be followed below.

In general, IC50 refers to the concentration that inhibits the measured activity by half. Lower therefore signals inhibition by little substance.

One test concerns Trypanosoma brucei rhodesiense STIB900. As to the kind of experiment: Activity against Trypanosoma brucei rhodesiense STIB900 (Alamar Blue assay). The test is classed as cell-based. To be noted: Trypanosoma brucei, 70 h, bloodstream forms of T. b. rhodesiense STIB 900, 70 h incubation. Here is the method:
Activity Against Trypanosoma brucei Rhodesiense STIB900
This stock was isolated in 1982 from a human patient in Tanzania and after several mouse passages cloned and adapted to axenic culture conditions (Baltz, T., D. Baltz, C. Giroud, and J. Crockett. 1985, Cultivation in a semi-defined medium of animal infective forms of Trypanosoma brucei, T. equiperdum, T. evansi, T. rhodesiense and T. gambiense. EMBO Journal 4:1273-1277). Minimum Essential Medium (50 μl) supplemented with 25 mM HEPES, 1 g/l additional glucose, 1% MEM non-essential amino acids (100×), 0.2 mM 2-mercaptoethanol, 1 mM Na-pyruvate and 15% heat inactivated horse serum was added to each well of a 96-well microtiter plate. Serial drug dilutions of eleven 3-fold dilution steps covering a range from […] were prepared. Then 4×10^3 bloodstream forms of T. b. rhodesiense STIB 900 in 50 μl was added to each well and the plate incubated at 37° C. under a 5% CO2 atmosphere for 70 h. 10 μl Alamar Blue (resazurin, 12.5 mg in 100 ml double-distilled water) was then added to each well and incubation continued for a further 2-4 h (Räz, B., M. Iten, Y. Grether-Buhler, R. Kaminsky, and R. Brun. 1997, The Alamar Blue assay to determine drug sensitivity of African trypanosomes (T.b. rhodesiense and T.b. gambiense) in vitro. Acta Trop 68:139-47). Then the plates were read with a Spectramax Gemini XS microplate fluorometer (Molecular Devices Cooperation, Sunnyvale, Calif., USA) using an excitation wave length of 536 nm and an emission wave length of 588 nm. The IC50 values were calculated by linear regression (Huber, W. Koella, J. C. 1993, A comparison of the three methods of estimating EC50 in studies of drug resistance of malaria parasites. Acta Trop. 55, 257-261) from the sigmoidal dose inhibition curves using SoftmaxPro software (Molecular Devices Cooperation, Sunnyvale, Calif., USA). Melarsoprol is used as control.
For orientation: Alamar Blue is a resazurin reagent that responds to reducing activity.
Regarding `N#CC1(NC(=O)[C@H](Cc2ccc(OC(F)(F)F)c(Cl)c2)NC(=O)c2cc(C(F)(F)F)nn2CC(F)F)CC1` [Example 1, (S)—N-(3-(3-chloro-4-(trifluoromethoxy)phenyl)-1-(1-cyanocyclopropylamino)-1-oxopropan-2-yl)-1-(2,2-difluoroethyl)-3-(trifluoromethyl)-1H-pyrazole-5-carboxamide], half-maximal inhibition (IC50) was put at 0.003 µM.
Still for that read-out and setting: under `Cn1nc(C(F)(F)F)cc1C(=O)N[C@@H](Cc1ccc(OC(F)(F)F)c(Cl)c1)C(=O)NC1(C#N)CC1` [Example 2, (S)—N-(3-(3-chloro-4-(trifluoromethoxy)phenyl)-1-(1-cyanocyclopropylamino)-1-oxopropan-2-yl)-1-methyl-3-(trifluoromethyl)-1H-pyrazole-5-carboxamide] stands 0.005 µM.
On the same count and under the same terms, under `Cc1cc(C(=O)N[C@@H](Cc2ccc(OC(F)(F)F)c(Cl)c2)C(=O)NC2(C#N)CC2)n(C)n1` [Example 3, (S)—N-(3-(3-chloro-4-(trifluoromethoxy)phenyl)-1-(1-cyanocyclopropylamino)-1-oxopropan-2-yl)-1,3-dimethyl-1H-pyrazole-5-carboxamide] stands 0.071 µM.
The compound `Cn1nc(C2CC2)cc1C(=O)N[C@@H](Cc1ccc(OC(F)(F)F)c(Cl)c1)C(=O)NC1(C#N)CC1` [Example 4, (S)—N-(3-(3-chloro-4-(trifluoromethoxy)phenyl)-1-(1-cyanocyclopropylamino)-1-oxopropan-2-yl)-3-cyclopropyl-1-methyl-1H-pyrazole-5-carboxamide] gave a half-inhibitory concentration (IC50) of 0.005 µM.
Still for that read-out and setting: under `Cn1nc(C(C)(C)C)cc1C(=O)N[C@@H](Cc1ccc(OC(F)(F)F)c(Cl)c1)C(=O)NC1(C#N)CC1` [Example 5, (S)-3-tert-butyl-N-(3-(3-chloro-4-(trifluoromethoxy)phenyl)-1-(1-cyanocyclopropylamino)-1-oxopropan-2-yl)-1-methyl-1H-pyrazole-5-carboxamide] stands 4.43 µM; under `N#CC1(NC(=O)[C@H](Cc2ccc(OC(F)(F)F)c(Cl)c2)NC(=O)c2ccn(-c3ccc(F)cc3)n2)CC1` [Example 6, (S)—N-(3-(3-chloro-4-(trifluoromethoxy)phenyl)-1-(1-cyanocyclopropylamino)-1-oxopropan-2-yl)-1-(4-fluorophenyl)-1H-pyrazole-3-carboxamide], 0.05 µM.
Consider `Cn1nc(-c2ccccc2)cc1C(=O)N[C@@H](Cc1ccc(OC(F)(F)F)c(Cl)c1)C(=O)NC1(C#N)CC1` [Example 7, (S)—N-(3-(3-chloro-4-(trifluoromethoxy)phenyl)-1-(1-cyanocyclopropylamino)-1-oxopropan-2-yl)-1-methyl-3-phenyl-1H-pyrazole-5-carboxamide], for which half-maximal inhibition (IC50) required 0.02 µM.
Still for that read-out and setting: next, `Cc1oc(-c2ccc(Cl)cc2)nc1C(=O)N[C@@H](Cc1ccc(OC(F)(F)F)c(Cl)c1)C(=O)NC1(C#N)CC1` [Example 8, (S)—N-(3-(3-chloro-4-(trifluoromethoxy)phenyl)-1-(1-cyanocyclopropylamino)-1-oxopropan-2-yl)-2-(4-chlorophenyl)-5-methyloxazole-4-carboxamide]: 0.068 µM.
`N#CC1(NC(=O)[C@H](Cc2ccc(OC(F)(F)F)c(Cl)c2)NC(=O)c2cnn(-c3ccc(F)cc3)n2)CC1` [Example 9, (S)—N-(3-(3-chloro-4-(trifluoromethoxy)phenyl)-1-(1-cyanocyclopropylamino)-1-oxopropan-2-yl)-2-(4-fluorophenyl)-2H-1,2,3-triazole-4-carboxamide] had a half-maximal inhibitory concentration (IC50) of 0.009 µM.
On to `N#CC1(NC(=O)[C@H](Cc2ccc(OC(F)(F)F)c(Cl)c2)NC(=O)c2cc(-c3ccccc3Cl)n[nH]2)CC1` [Example 10, (S)—N-(3-(3-chloro-4-(trifluoromethoxy)phenyl)-1-(1-cyanocyclopropylamino)-1-oxopropan-2-yl)-3-(2-chlorophenyl)-1H-pyrazole-5-carboxamide], for which half-maximal inhibition (IC50) required 0.013 µM.
Consider `N#CC1(NC(=O)[C@H](Cc2ccc(OC(F)(F)F)c(Cl)c2)NC(=O)c2cc(-c3ccc(F)cc3)n[nH]2)CC1` [Example 11, (S)—N-(3-(3-chloro-4-(trifluoromethoxy)phenyl)-1-(1-cyanocyclopropylamino)-1-oxopropan-2-yl)-3-(4-fluorophenyl)-1H-pyrazole-5-carboxamide], for which half-maximal inhibition (IC50) required 0.278 µM.
On the same count and under the same terms, next, `COc1ccc(-c2cc(C(=O)N[C@@H](Cc3ccc(OC(F)(F)F)c(Cl)c3)C(=O)NC3(C#N)CC3)[nH]n2)cc1` [Example 12, (S)—N-(3-(3-chloro-4-(trifluoromethoxy)phenyl)-1-(1-cyanocyclopropylamino)-1-oxopropan-2-yl)-3-(4-methoxyphenyl)-1H-pyrazole-5-carboxamide]: 0.162 µM; `N#CC1(NC(=O)[C@H](Cc2ccc(OC(F)(F)F)c(Cl)c2)NC(=O)c2cc(-c3ccccc3)no2)CC1` [Example 13, (S)—N-(3-(3-chloro-4-(trifluoromethoxy)phenyl)-1-(1-cyanocyclopropylamino)-1-oxopropan-2-yl)-3-phenylisoxazole-5-carboxamide]: 0.003 µM; `Cc1nn(-c2ccccc2)nc1C(=O)N[C@@H](Cc1ccc(OC(F)(F)F)c(Cl)c1)C(=O)NC1(C#N)CC1` [Example 14, (S)—N-(3-(3-chloro-4-(trifluoromethoxy)phenyl)-1-(1-cyanocyclopropylamino)-1-oxopropan-2-yl)-5-methyl-2-phenyl-2H-1,2,3-triazole-4-carboxamide]: 0.145 µM.
The compound `N#CC1(NC(=O)[C@H](Cc2ccc(OC(F)(F)F)c(Cl)c2)NC(=O)c2noc(-c3cccc(F)c3)n2)CC1` [Example 15, (S)—N-(3-(3-chloro-4-(trifluoromethoxy)phenyl)-1-(1-cyanocyclopropylamino)-1-oxopropan-2-yl)-5-(3-fluorophenyl)-1,2,4-oxadiazole-3-carboxamide] showed a 50% inhibitory concentration (IC50) of 0.005 µM.
Same read-out and setting: under `N#CC1(NC(=O)[C@H](Cc2ccc(OC(F)(F)F)c(Cl)c2)NC(=O)c2cnn(-c3ccccc3)n2)CC1` [Example 16, (S)—N-(3-(3-chloro-4-(trifluoromethoxy)phenyl)-1-(1-cyanocyclopropylamino)-1-oxopropan-2-yl)-2-phenyl-2H-1,2,3-triazole-4-carboxamide] stands 0.005 µM; under `Cn1nc(-c2cccc(Cl)c2)cc1C(=O)N[C@@H](Cc1ccc(OC(F)(F)F)c(Cl)c1)C(=O)NC1(C#N)CC1` [Example 17, (S)—N-(3-(3-chloro-4-(trifluoromethoxy)phenyl)-1-(1-cyanocyclopropylamino)-1-oxopropan-2-yl)-3-(3-chlorophenyl)-1-methyl-1H-pyrazole-5-carboxamide], 0.413 µM.
In turn, `N#CC1(NC(=O)[C@H](Cc2ccc(OC(F)(F)F)c(Cl)c2)NC(=O)c2noc(-c3cccc(Cl)c3)n2)CC1` [Example 18, (S)—N-(3-(3-chloro-4-(trifluoromethoxy)phenyl)-1-(1-cyanocyclopropylamino)-1-oxopropan-2-yl)-5-(3-chlorophenyl)-1,2,4-oxadiazole-3-carboxamide] came in with an IC50 of 0.007 µM.
The same measure, in the same setting: under `N#CC1(NC(=O)[C@H](Cc2ccc(OC(F)(F)F)c(Cl)c2)NC(c2nnc(-c3ccc(Br)cc3)o2)C(F)(F)F)CC1` (stereo partly drawn) [Example 19, (2S)-2-[[1-[5-(4-bromophenyl)-1,3,4-oxadiazol-2-yl]-2,2,2-trifluoroethyl]amino]-3-[3-chloro-4-(trifluoromethoxy)phenyl]-N-(1-cyanocyclopropyl)propanamide] stands 10.1 µM.
Same read-out and setting: under `N#CC1(NC(=O)[C@H](Cc2ccc(OC(F)(F)F)c(Cl)c2)NC(c2nnc(-c3ccccc3)o2)C(F)(F)F)CC1` (stereo partly drawn) [Example 22, (2S)-3-(3-chloro-4-(trifluoromethoxy)phenyl)-N-(1-cyanocyclopropyl)-2-(2,2,2-trifluoro-1-(5-phenyl-1,3,4-oxadiazol-2-yl)ethylamino)propanamide] stands 16.6 µM; under `CSc1ccc(-n2ncc(C(=O)N[C@@H](Cc3ccc(OC(F)(F)F)c(Cl)c3)C(=O)NC3(C#N)CC3)n2)cc1` [Example 23, N-[(2S)-3-[3-chloro-4-(trifluoromethoxy)phenyl]-1-[(1-cyanocyclopropyl)amino]-1-oxopropan-2-yl]-2-(4-methylsulfanylphenyl)triazole-4-carboxamide], 0.067 µM; under `N#CC1(NC(=O)[C@H](Cc2ccc(OC(F)(F)F)c(Cl)c2)NC(=O)c2cnn(-c3ccc(Cl)cc3)n2)CC1` [Example 24, 2-(4-chlorophenyl)-N-[(2S)-3-[3-chloro-4-(trifluoromethoxy)phenyl]-1-[(1-cyanocyclopropyl)amino]-1-oxopropan-2-yl]triazole-4-carboxamide], 0.022 µM.

Staying with this test, now noted: bloodstream forms of T. b. rhodesiense STIB 900, 70 h incubation.
`N#CC1(NC(=O)[C@H](Cc2ccc(OC(F)(F)F)c(Cl)c2)NC(c2nnc(-c3ccc(Br)cc3)o2)C(F)(F)F)CC1` (stereo partly drawn) [Example 20, (2S)-2-(1-(5-(4-bromophenyl)-1,3,4-oxadiazol-2-yl)-2,2,2-trifluoroethylamino)-3-(3-chloro-4-(trifluoromethoxy)phenyl)-N-(1-cyanocyclopropyl)propanamide] had an IC50 of 16.1 µM.
